Measurements taken from publication PMC7449246, “Natural HDAC‐1/8 inhibitor baicalein exerts therapeutic effect in CBF‐AML” (Clinical and Translational Medicine, 2020).

Key:
HDAC-1 = molecular target: T1, HDAC-1 (Homo sapiens, UniProt Q13547); assay: fluorogenic deacetylase assay with purified HDAC; supported by CETSA in ME-1 cells (Tagg […] to […] °C); type: biochemical
T1 construct: gene HDAC1

HDAC-8 = molecular target: T2, HDAC-8 (Homo sapiens, UniProt Q9BY41); assay: as above; type: biochemical
T2 construct: gene HDAC8
T2 sequence (Q9BY41 1-377): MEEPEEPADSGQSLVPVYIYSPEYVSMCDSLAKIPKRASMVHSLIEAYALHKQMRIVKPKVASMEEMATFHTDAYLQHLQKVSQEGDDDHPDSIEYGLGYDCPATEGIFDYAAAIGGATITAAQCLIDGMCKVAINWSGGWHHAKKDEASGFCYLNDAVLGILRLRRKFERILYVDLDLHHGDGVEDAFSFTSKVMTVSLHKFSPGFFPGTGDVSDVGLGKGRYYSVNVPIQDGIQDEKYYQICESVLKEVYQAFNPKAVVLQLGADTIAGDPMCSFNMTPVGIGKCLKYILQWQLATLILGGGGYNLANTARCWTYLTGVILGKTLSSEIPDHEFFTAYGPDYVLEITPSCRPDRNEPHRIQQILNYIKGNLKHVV

T1 sequence (Q13547 whole entry): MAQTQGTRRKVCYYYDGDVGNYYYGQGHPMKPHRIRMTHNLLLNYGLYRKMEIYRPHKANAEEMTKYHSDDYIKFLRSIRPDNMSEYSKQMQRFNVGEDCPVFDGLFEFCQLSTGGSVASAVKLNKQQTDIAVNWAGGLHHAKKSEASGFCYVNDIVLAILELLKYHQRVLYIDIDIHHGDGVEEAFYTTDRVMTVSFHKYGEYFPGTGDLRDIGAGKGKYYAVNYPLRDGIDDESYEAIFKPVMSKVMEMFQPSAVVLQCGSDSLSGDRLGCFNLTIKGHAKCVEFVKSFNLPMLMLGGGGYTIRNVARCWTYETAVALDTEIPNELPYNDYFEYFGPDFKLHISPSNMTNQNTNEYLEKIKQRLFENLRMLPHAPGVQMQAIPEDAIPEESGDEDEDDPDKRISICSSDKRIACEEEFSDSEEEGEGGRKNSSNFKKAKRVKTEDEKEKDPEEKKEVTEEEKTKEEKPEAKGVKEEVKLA

IC50 (HDAC-1): 46.7 µM | IC50 (HDAC-8): 3.95 µM
SMILES: O=c1cc(-c2ccccc2)oc2cc(O)c(O)c(O)c12 [Baicalein]
